The structures appear in SMILES notation. “And” between values parts separate entries of the source, which are not always exact repeats. Equal entries are not always repeated.

The subject of data set [1] is Pentagastrin-Induced Gastric Acid Secretion. Kind of data set: Continuous pentagastrin infusion model: gastric acid output after single i.v. dose. Type of data set: in vivo, human. The conditions noted are these: for Acid Output, Treatment Period 0-6 h / Acid Output, Treatment Period 6-12 h / Acid Output, Treatment Period 12-18 h / Acid Output, Treatment Period 18-24 h: continuous PG 1 μg/kg/h, mean ± SD; for duration of action (time AO remained <10 mEq/h) / onset of response (time until AO decreased to <10 mEq/h and remained below for 1 h): mean±SD. As to the method: After 60 min of pentagastrin infusion, subjects received a single dose of i.v. pantoprazole (20, 40, 80, or 120 mg), i.v. famotidine (20 mg), or saline placebo. […] The study protocol was approved by the UCLA Institutional Review Board and conducted according to the provisions of the Declaration of Helsinki and its amendments. Written informed consent was obtained from each participant before enrollment, and the identity of each patient was kept confidential. Each subject underwent a prestudy screening that included a physical examination, electrocardiogram (ECG), laboratory blood and urine analysis, and a pregnancy test for women. The laboratory test included a complete blood count, blood chemistry tests, a test for human immunodeficiency virus, a screening for hepatitis B and C, and a urine drug screen. Subjects were excluded from the study if abnormalities in these parameters were detected. Maximum AO (MAO) were also determined during the screening period. MAO was estimated by the subcutaneous injection of PG (6 μg/kg), after which four 15-min samples were collected and analyzed (Table 1). […] Subjects who completed the screening examination and were eligible for the study were assigned to one of six treatment groups to receive i.v. doses of pantoprazole (20, 40, 80, or 120 mg), i.v. famotidine (20 mg), or placebo (normal saline). […] To stimulate MAO, subjects received an infusion of PG for 25 h (Peptavalon, Wyeth-Ayerst; 1.0 μg/kg/h) begun 1 h before the start of the study drug infusion. Gastric aspirates were collected by means of nasogastric (NG) tube in 15-min fractions from 1 h before study drug treatment through the end of treatment h 2 and in 30 min fractions from h 3 through the end of h 24. The variables measured were onset of response (time until AO decreased to <10 mEq/h and remained below this level for 1 h), duration of response (time from onset until time when AO levels rose to >10 mEq/h and remained so for 1 h), and cumulative AO 15 over 24 h. […] On the evening before study day 1, participants were admitted to the UCLA Clinical Research Center. […] PG administration and MAO analyses were performed. […] Because no fluid or food p.o. was permitted during the study period, subjects received maintenance i.v. fluid to prevent dehydration. Vital signs and electrolytes were monitored during this time. […] (1973) Dig. […] Because this was an exploratory study, statistical analysis consisted of presenting means and standard deviations.

A short description of data set [2]: Adverse event monitoring in the pentagastrin infusion study. Type of data set: in vivo, human. The conditions noted are these: for subjects who withdrew because of adverse events: healthy subjects under continuous PG infusion. The text has this:
Adverse events were monitored continuously in the Clinical Research Center. Treatment-emergent adverse events were defined as adverse events not present at baseline or events present at baseline that worsened during treatment.

For data set [3] the following is noted: cited from earlier work.
Data set [4] addresses T1, CCKB/gastrin receptor (Rattus norvegicus, UniProt P30553).
T1 construct: act specifically at CCKB/gastrin receptors on renal tubular cells; from tissue; host or cells: kidney of living male Wistar-Kyoto rats (in vivo)
T1 sequence (P30553 1-452): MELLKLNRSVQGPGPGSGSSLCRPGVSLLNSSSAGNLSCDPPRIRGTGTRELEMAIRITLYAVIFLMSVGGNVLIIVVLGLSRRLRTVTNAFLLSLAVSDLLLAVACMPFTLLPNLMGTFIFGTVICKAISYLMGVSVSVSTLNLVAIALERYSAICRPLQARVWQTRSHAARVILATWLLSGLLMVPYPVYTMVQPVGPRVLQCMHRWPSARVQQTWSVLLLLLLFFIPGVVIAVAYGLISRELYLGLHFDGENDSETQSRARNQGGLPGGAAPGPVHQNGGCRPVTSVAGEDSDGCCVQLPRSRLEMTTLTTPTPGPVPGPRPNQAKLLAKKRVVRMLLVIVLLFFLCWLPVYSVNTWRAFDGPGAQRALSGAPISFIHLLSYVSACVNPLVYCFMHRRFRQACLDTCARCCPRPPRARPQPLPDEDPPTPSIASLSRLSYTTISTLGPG
Description: Meal gavage: renal hemodynamics, sodium excretion and urine volume. Type of data set: in vivo. As to the method:
(§1) Male Wistar-Kyoto rats (300 grams, 10-12 weeks old) (Harlan Sprague Dawley, Indianapolis, Ind.) were maintained on a regular Purina rat chow diet. Catheters were placed into the external jugular and femoral veins and left carotid artery and systemic arterial pressure was monitored. The right suprarenal artery was cannulated with a PE-10 catheter heat stretched to 180 mm and a flow catheter was secured around the right renal artery (Transonic Systems, Ithaca, N.Y.). GFR was determined after an intravenous infusion of normal saline containing [^14C]-inulin (0.01 mCi/10 ml (New England Nuclear, Boston, Mass.) at a rate of 5 ml/100 g body wt. for 30 minutes followed by an infusion of 1.8 ml/100 g body wt/hr). After an equilibration period of 120 minutes, 20 minute collections were begun. Meal gavage studies were performed with 2.5 ml/hr of liquefied rat chow administered via gastric tube. Gastrin 17-1 (Peninsula Laboratories, CA) was diluted in normal saline and infused (10 pmoles/kg/hr) via the right renal artery catheter. Following a basal period, rats received either L-365,260 (80 pmoles/kg, 5 min bolus) or vehicle alone and 20 minute collection periods were begun for determination of sodium and water excretion.

Data set [5] deals with T1, CCKB/gastrin receptor. Kind of data set: Intrarenal gastrin infusion: renal hemodynamics, sodium excretion and urine volume. In kind it is in vivo. The conditions noted are these: L-365,260 80 pmoles/kg bolus after gastrin infusion. The method, then:
as §1

The subject of a further data set is Na+-K+-ATPase. Description: Na+-K+-ATPase activity in isolated renal tubules after meal. The conditions noted are these: direct intrarenal infusion 80 pmoles/kg prior to the meal. Type of data set: biochemical, rat. As to the method: Renal tubules (cortical and medullary thick ascending limb of Henle) were isolated (Slobodyansky et al. (1995) Am. J. Physiol. 268: F279-F284) and immediately homogenized (in a Polytron) in 4° C. reaction buffer [4 mM MgCl2, 100 mM tris(hydroxymethyl)aminomethane HCl, pH7.2]. The dephosphorylation of tris(hydroxymethyl)aminomethane-p-nitrophenyl-phosphate was used as the index of Na^+-K^+-ATPase activity (Eisner et al. (1997) Am. J. Physiol. 273: R317-R323).

[6] abbreviates: single i.v. doses 80 and 120 mg.
Where [7] appears, read: 80 pmoles/kg bolus, more than 5-fold with meal alone.
The mark [8] stands for this setting: L-365,260 80 pmoles/kg 5 min bolus before meal gavage.

Take `COc1ccnc(C[S+]([O-])c2nc3ccc(OC(F)F)cc3[nH]2)c1OC` (stereo not shown) [Pantoprazole, pantoprazole]: the “AO suppressed to” value in data set [1] (80 and 120 mg doses, all subjects, after 1 h and for the full 24-h period) is less than 10 mEq/h. Further, the “AO suppressed to” value in data set [1] (all i.v. doses (20, 40, 80, 120 mg)) is on record as less than 10 mEq/h. The “time after administration at which acid-suppressing activity was observed” value in data set [1] (i.v., in general) lay in the range of 15 to 20 min. Also, in data set [1] (single i.v. dose 20 mg), the “Peak inhibition of acid output” value was 83%; the “hourly AO averaged over the 24-h period” value turned out to be 11.9 mEq/h; the “Acid Output, Treatment Period 0-6 h” value amounted to 11.7 ± 10.5 mEq/h; the “Acid Output, Treatment Period 6-12 h” value came out at 13.6 ± 13.3 mEq/h. For the same compound, in data set [1] (single i.v. dose 20 mg), the “Acid Output, Treatment Period 12-18 h” value is 15.1 ± 13.7 mEq/h; the “Acid Output, Treatment Period 18-24 h” value stood at 14.2 ± 8.6 mEq/h; the “duration of action (time AO remained <10 mEq/h)” value came to 8.4 ± 8.0 h. For the same compound, in data set [1] (single i.v. dose 40 mg), the “Peak inhibition of acid output” value is on record as 90%; the “hourly AO averaged over the 24-h period” value is given as 7.6 mEq/h; the “Acid Output, Treatment Period 0-6 h” value is on record as 8.1 ± 5.4 mEq/h; the “Acid Output, Treatment Period 6-12 h” value was 4.8 ± 4.0 mEq/h. In addition, in data set [1] (single i.v. dose 40 mg), the “Acid Output, Treatment Period 12-18 h” value is reported as 7.3 ± 4.1 mEq/h and the “Acid Output, Treatment Period 18-24 h” value came to 10.1 ± 3.7 mEq/h. In data set [1] (single i.v. dose 80 mg), the “Peak inhibition of acid output” value was found to be 99%; the “hourly AO averaged over the 24-h period” value was 3.3 mEq/h; the “Acid Output, Treatment Period 0-6 h” value is recorded as 2.4 ± 1.5 mEq/h; the “Acid Output, Treatment Period 6-12 h” value is recorded as 1.2 ± 0.6 mEq/h. For the same compound, in data set [1] (single i.v. dose 80 mg), the “Acid Output, Treatment Period 12-18 h” value was determined as 3.7 ± 1.9 mEq/h; the “Acid Output, Treatment Period 18-24 h” value is 6.1 ± 3.2 mEq/h; the “duration of action (time AO remained <10 mEq/h)” value was determined as 21.2 ± 1.9 h; the “onset of response (time until AO decreased to <10 mEq/h and remained below for 1 h)” value was 0.8 ± 0.3 h. For the same compound, in data set [1] (single i.v. dose 120 mg), the “Peak inhibition of acid output” value worked out at 100%; the “hourly AO averaged over the 24-h period” value was 2.4 mEq/h; the “Acid Output, Treatment Period 0-6 h” value came to 1.3 ± 0.8 mEq/h; the “Acid Output, Treatment Period 6-12 h” value was found to be 0.7 ± 0.2 mEq/h. Moreover, in data set [1] (single i.v. dose 120 mg), the “Acid Output, Treatment Period 12-18 h” value stood at 3.7 ± 0.7 mEq/h; the “Acid Output, Treatment Period 18-24 h” value came out at 5.2 ± 0.4 mEq/h; the “onset of response (time until AO decreased to <10 mEq/h and remained below for 1 h)” value worked out at 0.4 ± 0.2 h. Moreover, in data set [1] (setting [6]), the “duration of acid output suppression” value is listed as more than 20 h and the onset of action is given as less than 1 h. Further, the “suppression of acid output” value in data set [1] (single i.v. doses 80 and 120 mg, all subjects) is 99-100%. Moreover, the “suppression of acid output” value in data set [1] (single i.v. doses 80 and 120 mg, all subjects, listed as pantoprazole) was more than 90%. Also, the “duration of acid output suppression” value in data set [1] (single i.v. doses 80 and 120 mg, listed as pantoprazole) was ~24 h and < 21 h. Also, the “subjects who withdrew because of adverse events” value in data set [2] is “Three”.
Turning to `NC(N)=Nc1nc(CSCCC(N)=NS(N)(=O)=O)cs1` [Famotidine, famotidine], in data set [1] (single i.v. dose 20 mg), the “Peak inhibition of acid output” value worked out at 94%; the “hourly AO averaged over the 24-h period” value was determined as 18.2 mEq/h; the “loss of acid-suppressing effectiveness” value is “lost effectiveness after 6 h”; the “Acid Output, Treatment Period 0-6 h” value was 4.4 ± 2.5 mEq/h. In data set [1] (single i.v. dose 20 mg), the “Acid Output, Treatment Period 6-12 h” value is listed as 17.7 ± 5.1 mEq/h; the “Acid Output, Treatment Period 12-18 h” value worked out at 25.8 ± 9.3 mEq/h; the “Acid Output, Treatment Period 18-24 h” value is listed as 25.0 ± 10.4 mEq/h; the “duration of action (time AO remained <10 mEq/h)” value is 6.5 ± 2.1 h. In data set [1] (single i.v. dose 20 mg), the “onset of response (time until AO decreased to <10 mEq/h and remained below for 1 h)” value was 0.5 ± 0.2 h. In data set [2], the “subjects who withdrew because of adverse events” value is “No subjects”. Besides, the adverse events reported result in data set [2] (i.v. 20 mg group under continuous PG infusion) is “Three subjects from the famotidine group complained of abdominal pain and dyspepsia and were noted to have small amounts of blood in their NG aspirate”.
As for `CSCC[C@H](NC(=O)[C@H](Cc1c[nH]c2ccccc12)NC(=O)CCNC(=O)OC(C)(C)C)C(=O)N[C@@H](CC(=O)O)C(=O)N[C@@H](Cc1ccccc1)C(N)=O` [Pentagastrin, N-t-butyloxycarbonyl-Beta-alanyl-L-tryptophyl-L-methionyl-L-aspartyl-L-phenyl-alanyl amide], in data set [3], the “solubility in dimethylformamide and dimethylsulfoxide” value is on record as “soluble”; the “solubility in water, ethanol, ether, benzene, chloroform, ethyl acetate” value is on record as “almost insoluble”.
Take `Cc1cccc(NC(=O)N[C@@H]2N=C(c3ccccc3)c3ccccc3N(C)C2=O)c1` [L-365,260]: the “inhibition of meal-stimulated increase in sodium and water excretion” value on CCKB/gastrin receptor [4] (80 pmoles/kg bolus) was “up to 80%”. Besides, at CCKB/gastrin receptor [4] (80 pmoles/kg bolus, compared to vehicle alone), the “effect on meal-stimulated increase in urine flow rate” value was “nearly completely inhibited”. At CCKB/gastrin receptor [4] (setting [7]), the “meal-stimulated increase in fractional excretion of sodium (FeNa) in presence of antagonist” value was determined as 2 fold and the “meal-stimulated increase in urinary sodium (UNaV) in presence of antagonist” value is on record as 2 fold. On CCKB/gastrin receptor [4] (setting [8]), the “effect on meal-induced increase in glomerular filtration rate (GFR)” value is “inhibited” and the “effect on meal-induced increase in renal blood flow (RBF)” value is recorded as “inhibited”. Further, the “effect on Mean Arterial Pressure (MAP)” value on CCKB/gastrin receptor [4] (meal gavage study period, 80 pmoles/kg bolus) was “No effect”. On CCKB/gastrin receptor [5], the “effect on gastrin-stimulated FeNa” value was “returned to near baseline values”, the “effect on gastrin-stimulated changes in urine flow rate” value was “completely antagonized” and the “effect on gastrin-stimulated elevation in urinary excretion of sodium” value was “returned to near baseline values”. Further, the “effect on meal induced inhibition of Na+/K+-ATPase activity” value in the data set on Na+-K+-ATPase is given as “complete reversal”.

These data come from patent US7807623B2, “Use of pentagastrin to inhibit gastric acid secretion or as a diuretic” (The Regents of the University of California, priority 1999, dated 2010).
